The text below walks through data of ChEMBL document CHEMBL1201862, “PubChem BioAssay data set” (2004).

Some test systems named below: NCI-H226; UACC-257; HT-29; UACC-62; Malme-3M; OVCAR-3; MOLT-4; M14; SF-268; SNB-75; K562; SK-OV-3; NCI-H23; HL-60; SNB-19; SK-MEL-28; SF-295; PC-3; NCI/ADR-RES.
What all share (test): growth of human tumour cells (NCI), 48 h

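Assay format: 96-well plates, 48-hour exposure. Abbreviation: GI50, concentration required for 50% inhibition of growth.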 The source made the active and inactive calls. No stated cut-off is given here; in the data, active = GI50 up to about 1.1 µM and inactive = higher.

For `CCOC(=O)C(=O)Nc1c(CC)cccc1C(C)CC` (stereo unspecified), the GI50 with NCI-H226, in the experiment on UACC-257, with HT-29, in the experiment with UACC-62, in the experiment on Malme-3M and in the experiment on OVCAR-3 was > 100 µM (inactive) throughout. The GI50 with MOLT-4, in the experiment on M14, with SF-268, in the experiment with SNB-75, in the experiment with K562 and in the experiment with SK-OV-3 was > 100 µM (inactive) in each case. For the same molecule, the GI50 with NCI-H23, in the experiment on HL-60, in the experiment on SNB-19, in the experiment with SK-MEL-28 and with SF-295 was > 100 µM (inactive) in each case.
As for `O=C1CC2CC3OC3[C@H]3c4cc5c(cc4C(=O)N1C23)OCO5` (stereo partly specified), the GI50 with NCI-H226, in the experiment with HT-29, in the experiment with UACC-62, in the experiment on Malme-3M, in the experiment with OVCAR-3 and with MOLT-4 was > 100 µM (inactive) throughout. The GI50 with M14, in the experiment with SF-268, in the experiment with K562, in the experiment on SK-OV-3, in the experiment on HL-60 and with SNB-19 was > 100 µM (inactive) in each case. The GI50 with SK-MEL-28 and in the experiment with SF-295 was > 100 µM (inactive) throughout.
With `Nc1nnc(O)c2c1c(I)cn2C1OC(CO)C(O)C1O` (stereo unspecified), the GI50 in the experiment with NCI-H226 was 3.04 µM (inactive); in the experiment on UACC-257, 2.15 µM (inactive); in the experiment with HT-29, 0.122 µM (active); with UACC-62, 3.12 µM (inactive); with Malme-3M, 0.778 µM (active); with OVCAR-3, 0.0745 µM (active). Further, the GI50 was 0.0474 µM (active) in the experiment with MOLT-4; 0.64 µM (active) in the experiment on M14; 2.21 µM (inactive) with SF-268; 0.718 µM (active) with SNB-75; 0.75 µM (active) in the experiment on K562; > 100 µM (inactive) in the experiment with SK-OV-3. The GI50 in the experiment with NCI-H23 is 0.5 µM (active); with HL-60 it was 0.118 µM (active); in the experiment with SNB-19 it was 7.93 µM (inactive); in the experiment with SK-MEL-28 it was 1.18 µM (inactive); in the experiment on SF-295 it was 1.43 µM (inactive).
As to `CCOC(=O)c1csc(NC(=O)CN2CCCCC2)n1`, the GI50 with UACC-257, in the experiment with HT-29, in the experiment with PC-3, in the experiment with UACC-62, in the experiment on NCI/ADR-RES and with OVCAR-3 was > 100 µM (inactive) in each case. Also, the GI50 with MOLT-4, with M14, in the experiment with SF-268, with SNB-75, in the experiment with K562 and in the experiment with SK-OV-3 was > 100 µM (inactive) in each case. For the same molecule, the GI50 in the experiment with NCI-H23, in the experiment on HL-60, in the experiment with SNB-19, in the experiment on SK-MEL-28 and with SF-295 was > 100 µM (inactive) throughout.
Regarding `COC(=O)NN1C(=O)C(=P(c2ccccc2)(c2ccccc2)c2ccccc2)C(C(=O)OC)=C1C`, the GI50 with NCI-H226, with HT-29, in the experiment with UACC-62, in the experiment on Malme-3M, in the experiment with OVCAR-3 and in the experiment with MOLT-4 was > 100 µM (inactive) each time. Moreover, the GI50 in the experiment on M14, in the experiment on SF-268, in the experiment with SNB-75, with K562, in the experiment on SK-OV-3 and in the experiment with NCI-H23 was > 100 µM (inactive) throughout. The GI50 in the experiment with HL-60 is 52.5 µM (inactive); in the experiment on SNB-19, > 100 µM (inactive); in the experiment with SK-MEL-28, > 100 µM (inactive); in the experiment on SF-295 it was > 100 µM (inactive).
